In ChEMBL document CHEMBL1201862, “PubChem BioAssay data set” (2004):
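Dose response: 5 concentrations. Exposure: 48 h. Format: 96-well plates. Endpoint: linear interpolation; highest concentration if not reached. Abbreviation: GI50, concentration required for 50% inhibition of growth.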 The source made the active and inactive calls. No stated cut-off is given here; in the data, active = GI50 up to about 1.1 µM and inactive = higher.

Columns and labels:
Experiment in all cases: inhibition of tumour cell growth, NCI panel, 48 h
SF-539 = system: SF-539
U-251 = system: U-251
MOLT-4 = system: MOLT-4
DU-145 = system: DU-145
T47D = system: T47D
SK-MEL-28 = system: SK-MEL-28
M14 = system: M14
SK-MEL-5 = system: SK-MEL-5
NCI-H522 = system: NCI-H522
RXF 393 = system: RXF 393
UACC-257 = system: UACC-257
UO-31 = system: UO-31
NCI/ADR-RES = system: NCI/ADR-RES
SW-620 = system: SW-620
Malme-3M = system: Malme-3M
HT-29 = system: HT-29
CAKI-1 = system: CAKI-1
IGROV-1 = system: IGROV-1
COLO 205 = system: COLO 205
786-0 = system: 786-0

Row | SMILES | GI50 (SF-539) | GI50 (U-251) | GI50 (MOLT-4) | GI50 (DU-145) | GI50 (T47D) | GI50 (SK-MEL-28) | GI50 (M14) | GI50 (SK-MEL-5) | GI50 (NCI-H522) | GI50 (RXF 393) | GI50 (UACC-257) | GI50 (UO-31) | GI50 (NCI/ADR-RES) | GI50 (SW-620) | GI50 (Malme-3M) | GI50 (HT-29) | GI50 (CAKI-1) | GI50 (IGROV-1) | GI50 (COLO 205) | GI50 (786-0)
1 | CC(C)=CCN1c2ccccc2NC(=O)CC1C (stereo not given) | > 100 µM (inactive) | > 100 µM (inactive) | > 100 µM (inactive) | > 100 µM (inactive) | 84.7 µM (inactive) | > 100 µM (inactive) | > 100 µM (inactive) | 29.3 µM (inactive) | > 100 µM (inactive) | > 100 µM (inactive) | 28.8 µM (inactive) | 83.4 µM (inactive) | 49.8 µM (inactive) | > 100 µM (inactive) | > 100 µM (inactive) | > 100 µM (inactive) | > 100 µM (inactive) | > 100 µM (inactive) | > 100 µM (inactive) | > 100 µM (inactive)
2 | COc1cc(/C=C/C(=O)OC[C@H](Br)[C@H](OC(C)=O)c2ccc3c(c2)OCO3)cc(OC)c1OC | > 100 µM (inactive) | > 100 µM (inactive) | 7.69 µM (inactive) | > 100 µM (inactive) | 52.5 µM (inactive) | > 100 µM (inactive) | > 100 µM (inactive) | > 100 µM (inactive) | > 100 µM (inactive) | > 100 µM (inactive) | > 100 µM (inactive) | 26 µM (inactive) | 57.7 µM (inactive) | > 100 µM (inactive) | > 100 µM (inactive) | > 100 µM (inactive) | > 100 µM (inactive) | > 100 µM (inactive) | > 100 µM (inactive) | > 100 µM (inactive)
3 | Cc1cc(C)c(S(=O)(=O)N(CCCN)OCCCON(CCCN)S(=O)(=O)c2c(C)cc(C)cc2C)c(C)c1 | 2.17 µM (inactive) | 1.64 µM (inactive) | 2.03 µM (inactive) | 1.71 µM (inactive) | 1.61 µM (inactive) | 1.91 µM (inactive) | 1.75 µM (inactive) | 4.55 µM (inactive) | 1.47 µM (inactive) | 4.6 µM (inactive) | 1.82 µM (inactive) | 16.7 µM (inactive) | 18.9 µM (inactive) | 2.49 µM (inactive) | 0.879 µM (active) | 1.67 µM (inactive) | 14.2 µM (inactive) | 1.98 µM (inactive) | 1.78 µM (inactive) | 2.33 µM (inactive)
4 | N=C(N)/N=C(\N)Nc1ccc(C(=O)O)cc1 | > 100 µM (inactive) | > 100 µM (inactive) | > 100 µM (inactive) | > 100 µM (inactive) | > 100 µM (inactive) | > 100 µM (inactive) | > 100 µM (inactive) | > 100 µM (inactive) | > 100 µM (inactive) | > 100 µM (inactive) | > 100 µM (inactive) | > 100 µM (inactive) | > 100 µM (inactive) | > 100 µM (inactive) | > 100 µM (inactive) | > 100 µM (inactive) | > 100 µM (inactive) | > 100 µM (inactive) | > 100 µM (inactive) | > 100 µM (inactive)
5 | O=C1CSC(c2ccccc2)N1c1ccc(-n2c(-c3ccccc3)nc3ccccc3c2=O)cc1 (stereo not given) | 65.2 µM (inactive) | 59.8 µM (inactive) | 28.1 µM (inactive) | > 100 µM (inactive) | 34.8 µM (inactive) | > 80.4 µM (inactive) | > 100 µM (inactive) | 47.4 µM (inactive) | 49.7 µM (inactive) | > 100 µM (inactive) | > 100 µM (inactive) | 28.4 µM (inactive) | 64.6 µM (inactive) | > 100 µM (inactive) | > 92.5 µM (inactive) | 61.4 µM (inactive) | > 100 µM (inactive) | 34.8 µM (inactive) | 54.2 µM (inactive) | > 92.9 µM (inactive)
